Measurements from patent US20140309295A1, “ANTIEPILEPTIC, HYPOCHOLESTEROLEMIC AND NEUROPROTECTIVE COMPOUND” (NEURON BIOPHARMA, S.A., priority 2009, published 2014).

Tests used:
[1] = test system: CD1 mice inoculated with MPTP (acute); experiment: Acute MPTP model of Parkinson's disease in mice; assay type: in vivo
Experimental: All the animals included for the experimental process were 12-week old males of the CD1 strain. The experiments were conducted strictly following the Guidance on the Operation of Animals (Scientific Procedures, Act. 1986). The animals had their respective quarantine period and were treated with maximum precaution to minimize possible contaminations during inoculations and handling.
Forty animals were used in this assay and the treatments were conducted with a volume of 100 μl, according to the following regimens: • i) PBS+PBS+PBS regimen: 10 animals were initially treated with PBS with a daily dose for 2 days by subcutaneous (s.c.) route, on the second day the animals were inoculated with 4 doses of PBS, at intervals of 2 hours by intraperitoneal (i.p.) route. For the next 7 days they were administered a daily dose of PBS by s.c. route. • ii) PBS+MPTP+PBS regimen: 10 animals were initially treated with a daily dose for 2 days of PBS by s.c. route, on the second day the animals were inoculated with 4 doses of MPTP at 20 mg/Kg, at intervals of 2 hours by i.p. route. For the next 7 days they were administered a daily dose of PBS by s.c. route. • iii) NST0037+MPTP+NST0037 regimen: 10 animals were initially treated with a daily dose for 2 days of NST0037 at 50 mg/kg by s.c. route, on the second day the animals were inoculated with 4 doses of MPTP at 20 mg/Kg, at intervals of 2 hours by i.p. route. For the next 7 days they were administered a daily dose of NST0037 at 50 mg/kg by s.c. route.
Before starting the treatments and once the treatment time of 7 days ended, the animals were subjected to a locomotor resistance test referred to as the Rotarod test for 2 minutes, recording the time the animals resisted walking over a cylinder which increased its speed from 4 to 40 r.p.m.
Before starting the treatments and once the treatment time of 7 days ended, the animals were subjected to a strength test in the so-called Grip-strength test, recording the strength of gripping a bar in grams exerted by the animals with the front paws in triplicate.
(§1) Once the treatment time of 7 days ended, the animals were sacrificed and the brains were dissected. The brain samples were processed and included in paraffin. For the analysis of neurodegeneration in the substantia nigra and the striatum, fluorescent Fluoro Jade B (FJB) staining was performed in 5 μm thick sagittal sections.
as §1, with “the presence of dopaminergic neurons” for “neurodegeneration”, “the immunohistochemistry against the tyrosine-hydroxylase (TH) protein” for “fluorescent Fluoro Jade B (FJB) staining”

zebrafish embryo = experiment: Biosafety in zebrafish embryo (OECD C15, semi-static, 9 days); assay type: in vivo, Danio rerio
Experimental: The fertilized eggs were obtained by natural mating of the zebrafish (Danio rerio, AB strain). A total of 8-10 pairs were used for each cross and a total of 200-250 eggs were generated on average per pair.
To assure exposure in the earliest stages of development, the eggs were quickly transferred (a minimum of 50 per condition) to another Petri dish with solutions of the compounds to be tested. […] Each experiment was performed in triplicate.
The studies were conducted in a total of 9 days post-fertilization, in which the treatment was renewed every day, thus conducting a semi-static assay.
The results at the end of the experiment allowed collecting the percentage of healthy larvae which reach the end of the experiment, defined as the number of live larvae and without symptoms of external physiopathological anomalies (morphological and/or behavioral), this being a parameter determining the biosafety of a substance under study and is complementary to the survival rates and to the LD50.
The anomalies recorded in the study are described below: • Intracranial thrombosis: a clot inside the blood vessel, in this case of any cerebral vessel. • Cardiac thrombosis: occurs in a cardiac vessel. • Cardiac edema (or hydrops): accumulation of fluid in the intercellular tissue space and also in the cavities of the organism. In the case of the heart, it causes the accumulation of fluid in the pericardial sac. • Malformation: a noticeable difference in the shape of the body or part of the body, or organ of the body (internal or external) compared with the average shape of the part in question.
The cardiac rhythm of the zebrafish embryos-larva was determined by means of visual analysis in stereomicroscopy, determining the heartbeat with the aid of a manual counter for a period of one minute.

[2] = test system: human neuroblastoma SK-N-MC cells; experiment: Protection against neuronal death induced by endoplasmic reticulum stress (tunicamycin), WST-1; assay type: cell-based; conditions: 40 μM NST0037; 24 μM tunicamycin
Experimental: The assay was performed on human neuroblastoma SK-N-MC cells in culture from the American Type Culture Collection (ATCC), in all cases strict rules of sterility were followed and the manipulation was performed in class II biological safety cabinets following European standard EN 12469. The cells were maintained in the following culture medium: Minimum Essential Medium Eagle (MEM) supplemented with 1 mM sodium pyruvate, 2 mM L-glutamine, 0.1 mM non-essential amino acids, 0.05 mg/ml gentamicin and 10% fetal bovine serum.
The inhibition caused by compound NST0037 of cell death caused by treatment with tunicamycin generating reticular stress was analyzed. Tunicamycin is an inhibitor of protein N-glycosylation, causing abnormal protein folding in the endoplasmic reticulum, therefore said proteins are accumulated and cause stress, resulting in cell death. These cells, not exceeding 15 passages, were seeded on 96-well plates treated for adherent cells with a cell concentration of 5×10^4 cells/well; 3 wells of the plate were seeded for each condition of the assay. […]
The cells were incubated (at 37° C. and 5% CO2) with these treatments for 22 hours, after which time WST-1 reagent (Roche) was added. […] The formazan that is formed can be detected colorimetrically since it has an absorbance of 440 nm. The reading was taken in a plate reader at 440 nm 2 hours after adding the reagent.

[3] = NST0037+MPTP+NST0037, 50 mg/kg s.c., 7 days
[4] = NST0037+MPTP+NST0037 vs PBS+MPTP+PBS, 7 days

`CCC(CC)C(=O)O[C@H]1C[C@@H](C)C=C2C=C[C@H](C)[C@H](CC[C@@H]3C[C@@H](O)CC(=O)O3)[C@H]21` [NST0037, (1S,2S,6R,8S,8aR)-1,2,6,7,8,8a-hexahydro-3,7-dimethyl-8-[2-[(2R,4R)-tetrahydro-4-hydroxy-6-oxo-2H-pyran-2-yl]ethyl]-1-naphthalenyl-2-ethyl-butyrate] was tested, and the “motor resistance (Rotarod test)” value [1, 3] was “prevents the motor deterioration of the animals”, the “strength (Grip-strength test)” value [1, 3] was “prevents the loss of strength induced by MPTP” and the “survival after acute administration of MPTP” value ([1]; NST0037+MPTP+NST0037, 50 mg/kg s.c., MPTP 4 x 20 mg/Kg i.p.) was “promotes the survival of the animals”. For the same compound, the “dopaminergic neurons (tyrosine-hydroxylase) in substantia nigra and striatum” value [1, 4] was “larger number of TH-positive cells in the substantia nigra as well as a higher labeling intensity in the striatum”, the “neurodegeneration (Fluoro Jade B) in substantia nigra and striatum” value [1, 4] was “number of cells in degeneration and positive for FJB significantly lower” and the “percentage of larvae with malformations or anomalous appearance” value (zebrafish embryo; 0.2 mg/L) was “did not show significant toxicological effects”. For the same compound, the “percentage of healthy larvae at the end of the experiment” value (zebrafish embryo; 0.06 and 0.2 mg/L, 9 days) was “more healthy larvae reaching the end of the experiment”, the LD50 (zebrafish embryo; first days post-treatment (up to day 2)) was “above the maximum dose evaluated” and the “survival rate of embryos-larvae” value (zebrafish embryo; high dose (2 mg/L, FIG. 24)) was “caused the mortality of all the embryos of the assay”. For the same compound, the “reduction of the cardiac rhythm vs controls” value (zebrafish embryo; increasing doses up to 2 mg/L, 72 hours post-treatment) was “statistically significant only at the dose of 2 mg/L”, the “survival rate of embryos-larvae vs controls” value (zebrafish embryo; lower dose (FIG. 25: NST0037 0.2 mg/L)) was “did not cause a statistically significant reduction of the survival rate” and the “protection against death caused by Tm” value [2] was 55%.
